From ChEMBL document CHEMBL1150772, “Chemometric and chemoinformatic analyses of anabolic and androgenic activities of testosterone and dihydrotestosterone analogues” (Bioorg Med Chem, 2008)

Assay: physchem
Details: octanol/water
Description: Lipophilicity, log P of the compound

SMILES: CN(C)CCN/C=C1\C[C@@]2(C)[C@@H](CC[C@@H]3[C@@H]2CC[C@@]2(C)[C@H]3CC[C@]2(C)O)CC1=O
- logP: 2.53

SMILES: C[C@]12CC/C(=N/NC(N)=O)C[C@@H]1CC[C@@H]1[C@@H]2CC[C@]2(C)[C@@H](O)CC[C@@H]12
- logP: 3.45

SMILES: CC(=O)O[C@H]1CC[C@H]2[C@@H]3CC[C@H]4C[C@H]5[C@@H](C[C@]4(C)[C@H]3CC[C@]12C)C5(F)F
- logP: 4.77

SMILES: C[C@]12C/C(=C\N)C(=O)C[C@@H]1CC[C@@H]1[C@@H]2CC[C@@]2(C)[C@H]1CC[C@]2(C)O
- logP: 2.8

SMILES: C[C@@H]1CC2=CC(=O)CC[C@]2(C)[C@H]2CC[C@]3(C)[C@@H](O)CC[C@H]3[C@H]12
- logP: 4.17

SMILES: C[C@]12C[C@@H]3[C@H](C[C@@H]1CC[C@@H]1[C@@H]2CC[C@@]2(C)[C@H]1CC[C@]2(C)O)C3(F)F
- logP: 4.72

SMILES: CC(=O)O[C@H]1CC[C@H]2[C@@H]3CC[C@H]4C[C@@H]5[C@H](C[C@]4(C)[C@H]3CC[C@]12C)C5(F)F
- logP: 4.77

SMILES: CCCO[C@@]1(C)CC[C@H]2[C@@H]3CC[C@H]4CC(=O)[C@H](C)C[C@]4(C)[C@H]3CC[C@@]21C
- logP: 5.66

SMILES: C[C@@H]1C[C@@H]2[C@H](CC[C@]3(C)[C@@H](O)CC[C@@H]23)[C@@]2(C)CCC(=O)C[C@H]12
- logP: 4.26

SMILES: C[C@]12CC[C@H]3[C@@H](C[C@@H](F)C4=CC(=O)CC[C@@]43C)[C@@H]1CC[C@@H]2O
- logP: 3.53

SMILES: C[C@]12CC[C@H]3[C@@H](CCC4=CC(=O)CC[C@@]43C)[C@@H]1CC[C@@H]2O[Si](C)(C)C
- logP: 3.95

SMILES: C[C@]12CCC(=O)C=C1CC[C@@H]1[C@@H]2[C@@H](O)C[C@@]2(C)[C@H]1CC[C@]2(C)O
- logP: 2.93

SMILES: C[C@]12CCC(=O)C[C@@H]1CC[C@H]1C3=CC[C@H](O)[C@@]3(C)CC[C@@H]12
- logP: 3.5

SMILES: C[C@]12C[C@H](O)[C@H]3[C@@H](CCC4=CC(=O)CC[C@@]43C)[C@@H]1CC[C@@H]2O
- logP: 2.85

SMILES: COC[C@@H]1C[C@@]2(C)[C@@H](CC[C@@H]3[C@@H]2CC[C@]2(C)[C@@H](O)CC[C@@H]32)CC1=O
- logP: 3.77

SMILES: CCCO[C@@]1(C)CC[C@H]2[C@@H]3C[C@H](C)[C@H]4CC(=O)[C@H](C)C[C@]4(C)[C@H]3CC[C@@]21C
- logP: 5.99

SMILES: CCOC1(O[C@H]2CC[C@H]3[C@@H]4CC[C@H]5CC(=O)CC[C@]5(C)[C@H]4CC[C@]23C)CCCC1
- logP: 6.02

SMILES: C[C@H]1C/C(=N\O)C[C@@H]2CC[C@@H]3[C@H](CC[C@@]4(C)[C@H]3CC[C@]4(C)O)[C@]21C
- logP: 5

SMILES: C[C@@H]1CC2=CC(=O)CC[C@]2(C)[C@H]2CC[C@]3(C)C(=O)CC[C@H]3[C@H]12
- logP: 4.69

SMILES: C[C@]12CC[C@H]3[C@@H](CCC4=CC(=O)[C@H](F)C[C@@]43C)[C@@H]1CC[C@@H]2O
- logP: 3.86

SMILES: C[C@]12CC[C@H]3[C@@H](CCC4=CC(=O)CC[C@@]43C)[C@@H]1CC[C@@H]2OC(=O)C(F)Cl (stereo partly drawn)
- logP: 4.7

SMILES: C[C@]12C[C@H](O)CC[C@@H]1CC[C@@H]1[C@@H]2CC[C@@]2(C)[C@H]1CC[C@]2(C)O
- logP: 3.8

SMILES: CC(=O)O[C@H]1CC[C@H]2[C@@H]3CCC4=C(Cl)C(=O)CC[C@]4(C)[C@H]3[C@@H](O)C[C@]12C
- logP: 2.88

SMILES: CC(=O)O[C@H]1CC[C@H]2[C@@H]3CCC4=C(O)C(=O)CC[C@]4(C)[C@H]3CC[C@]12C
- logP: 3.06

SMILES: C[C@]12C[C@H]3O[C@H]3C[C@@H]1CC[C@@H]1[C@@H]2CC[C@]2(C)[C@@H](O)CC[C@@H]12
- logP: 3.5

SMILES: COC1(O[C@H]2CC[C@H]3[C@@H]4CC[C@H]5CC(=O)CC[C@]5(C)[C@H]4CC[C@]23C)CCCC1
- logP: 5.68

SMILES: CC(=O)O[C@H]1CC[C@H]2[C@@H]3CCC4=CC(=O)CC[C@]4(C)[C@H]3CC[C@]12C
- logP: 4.2

SMILES: CC1=C[C@@]2(C)C(=CC1=O)C=C[C@@H]1[C@@H]2CC[C@@]2(C)[C@H]1CC[C@]2(C)O
- logP: 4.01

SMILES: C[C@]12C[C@@H](F)C(=O)C[C@@H]1CC[C@@H]1[C@@H]2CC[C@]2(C)[C@@H](O)CC[C@@H]12
- logP: 3.96

SMILES: C[C@H]1C[C@@H]2[C@H](CC[C@@]3(C)[C@H]2CC[C@]3(C)O)[C@@]2(C)CCC(=O)C[C@H]12
- logP: 4.34

SMILES: CC(=O)O[C@H]1CC[C@H]2[C@@H]3CCC4=C(Cl)C(=O)CC[C@]4(C)[C@H]3CC[C@]12C
- logP: 3.87

SMILES: C[C@H]1C[C@@H]2[C@H](CC[C@]3(C)[C@@H](O)CC[C@@H]23)[C@@]2(C)CCC(=O)C[C@H]12
- logP: 4.26

SMILES: C[C@]12CC[C@H]3[C@@H](CCC4=CC(=O)CC[C@@]43C)[C@@H]1CC[C@@H]2OC(=O)C(Cl)Cl
- logP: 5.04

SMILES: C[C@]12C[C@@H]3O[C@@H]3C[C@@H]1CC[C@@H]1[C@@H]2CC[C@]2(C)[C@@H](O)CC[C@@H]12
- logP: 4.5

SMILES: C[C@@H]1C[C@]2(C)C3=CC[C@@]4(C)C(CC[C@]4(C)O)[C@@H]3CC[C@H]2CC1=O (stereo partly drawn)
- logP: 4.14

SMILES: C[C@H]1C[C@@H]2[C@H](CC[C@@]3(C)[C@H]2CC[C@]3(C)O)[C@@]2(C)CCC(=O)C=C12
- logP: 4.24

SMILES: C[C@]12CCC(=O)C=C1CC[C@@H]1[C@@H]2C(=O)C[C@]2(C)C(=O)CC[C@@H]12 [ADRENOTERONE]
- logP: 3.75

SMILES: C[C@]12CC[C@@H](O)C[C@@H]1CC[C@@H]1[C@@H]2CC[C@]2(C)[C@@H](O)CC[C@@H]12 [ANDROSTANDIOL]
- logP: 5.49

SMILES: C[C@@H]1CC2=CC(=O)CC[C@]2(C)[C@H]2CC[C@@]3(C)[C@@H](CC[C@]3(C)O)[C@H]12 [BOLASTERONE]
- logP: 4.24

SMILES: C[C@@H]1C[C@@]2(C)[C@@H](CC[C@@H]3[C@@H]2CC[C@]2(C)[C@@H](O)CC[C@@H]32)CC1=O [DROMOSTANOLONE]
- logP: 4.5

SMILES: C[C@]12CCC(=O)C[C@@H]1CC[C@@H]1[C@@H]2CC[C@@]2(C)[C@H]1CC[C@]2(C)O [MESTANOLONE]
- logP: 4.01

SMILES: C[C@]12CCC(=O)C=C1CC[C@@H]1[C@@H]2CC[C@@]2(C)[C@H]1CC[C@]2(C)O [METHYLTESTOSTERONE]
- logP: 3.91

SMILES: C[C@]12CC[C@H]3[C@@H](CCC4=CC(=O)CC[C@@]43C)[C@@H]1CC[C@@H]2O [TESTOSTERONE]
- logP: 2.53
